Reference: patent US20130245275A1, “PHENYL DIAMIDES AND A PHARMACEUTICAL PREPARATION COMPRISING PHENYL DIAMIDES” (Rheinische Friedrich-Wilhelms Universitaet Bonn, priority 2010, published 2013)
“Also recorded” adds a separate entry of the source.

Experiments:
Gli36 wt = experiment: glioblastoma proliferation assay (MTT), Gli36 wt; type: cell-based; conditions: Homo sapiens, 250 nM, 72 h, vs DMSO control, read-out: inhibitory effect on cell proliferation as compared to control
Protocol: (§1) The effect of the phenyl diamides according to formulas (5) to (18) on the proliferation of Glioblastoma cells was tested in two pairs of established human glioblastoma cell lines, Gli36 and U87. Human Gli36 wt, U87 wt and U87 EGFRvIII cells were a gift from Prof. Dr. Andreas H. Jacobs, European Institute for Molecular Imaging, Munster, Germany. The cells were maintained in DMEM (PAA) supplemented with 10% fetal calf serum (FCS, Lonza), 1% Penicillin/Streptomycin (PAA) and 110 μg/ml Sodiumpyruvat (Sigma-Aldrich) and were grown at 37° C., 5% CO2.
(§2) 3000 cells per 96 well were seeded into a clear, flat bottom 96 well plate (TPP). After 24 hours the cells were washed twice in 1×DPBS (PAA) and treated with 250 nM of the phenyl diamides according to formulas (5) to (18) in DMEM (PAA) supplemented with 1% FCS (Lonza), 1% Penicillin/Streptomycin (PAA) and 110 μg/ml Sodiumpyruvat (Sigma-Aldrich). Controls were treated with Dimethyl sulfoxide (DMSO) as solvent in an end concentration of 0.4% (v/v). A further control was performed with the control compound according to formula (XH1009). Medium was changed daily.
(§3) After 72 hours cell proliferation was quantified by using a commercially available 3-(4,5-dimethylthiazol-2-yl)-2,5diphenyltetrazolium bromide (MTT) assay (Cell Titer 96® Non-Radioactive Cell Proliferation Assay, Promega) as described in the manufacture's protocol. Briefly, 15 μl of Dye solution was added directly into the 100 μl media of the cells. After 4 hours incubation at 37° C., 5% CO2, 100 μl solubilization solution was added to solubilize the formazan product and the absorbance at 570 nm was measured in a Varioscan microplate reader (Thermo Scientific). All assays were performed at least in triplicates. For calculation of the relative proliferation rate/cell number the mean absorbance in the solvent DMSO only treated cells was set as 1. Results are given as the mean+/−standard error.
(§4) The FIGS. 2 and 3 show the relative cell numbers in the wild type glioblastoma cell line U87 wt (FIG. 2) and Gli36 wt (FIG. 3) normalized to the DSMO treated control after 72 h incubation with the respective phenyl diamides according to formulas (5) to (18), the DSMO treated control compound determined with a MTT proliferation essay. Data were normalized with the exchange in the solvent (DMSO) only control set as 1 and represent the mean values of duplicates, error bars correspond to standard error of the mean (SEM).

U87 wt = experiment: glioblastoma proliferation assay (MTT), U87 wt; type: cell-based; conditions: Homo sapiens, U87WT; for inhibition at 0.25 µM: 250 nM, 72 h, vs DMSO control, read-out: inhibitory effect on cell proliferation as compared to control; for IC50: 72 hours, at least 3 times, read-out: IC50 values of the inhibition of the proliferation in the cell line U87 wt
Protocol: as §1, §2, §3, §4
(§5) U87 wt and U87 EGFRvIII cells were a gift from Prof. Dr. Andreas H. Jacobs, European Institute for Molecular Imaging, Münster, Germany. The cells were maintained in DMEM (PAA) supplemented with 1% FCS (Lonza), 1% Penicillin/Streptomycin (PAA) and 110 μg/ml Sodiumpyruvat (Sigma-Aldrich) and were grown at 37° C., 5% CO2.
as §2, with “300” for “3000”, “concentrations ranging from 2.5” for “250”, “nM to 2 μM” for “nM”, “(18) or 5 μM of the control compound (XH1009)” for “(18)”, “(v/v).” for “(v/v). A further control was performed with the control compound according to formula (XH1009).”
(§6) Further, the IC50 values of the inhibition of the proliferation was determined. The IC50 value was determined by plotting the relative cell number against the added concentrations of the amide. The IC50 value corresponds to the concentration of the phenyl diamides at which the proliferation is reduced to half. The lower the IC50 value, the more strongly the phenyl diamide inhibits proliferation.

U87 EGFRvIII = experiment: glioblastoma proliferation assay (MTT), U87 EGFRvIII; selectivity of the inhibition; type: cell-based, human; conditions: for IC50: Homo sapiens, U87 EGFRvIII, 72 hours, MTT, at least 3 times, read-out: IC50 values of the inhibition of the proliferation in the cell line U87 EGFRvIII; for selectivity of the inhibition of the EGFRvIII dependent cell proliferation: U87 EGFRvIII compared with parental U87 wt
Protocol: as §5
as §2, with “300” for “3000”, “concentrations ranging from 2.5” for “250”, “nM to 2 μM” for “nM”, “(18) or 5 μM of the control compound (XH1009)” for “(18)”, “(v/v).” for “(v/v). A further control was performed with the control compound according to formula (XH1009).”
as §3, §6

[1] = biological target: T1, sec7-domain of cytohesin-2 (ARNO) (Homo sapiens, UniProt Q99418); experiment: guanine nucleotide exchange assay (GDP/GTP exchange on [Δ17]ARF1, tryptophan fluorescence); type: biochemical; conditions: isolated Sec-7 domain, each experiment at least 8 times, read-out: IC50 values measured for the isolated Sec-7 domain of cytohesin-2
T1 construct: ARNO-Sec7 (amino acids 50-255 of ARNO) were expressed in Escherichia coli; made in house; host or cells: Escherichia coli
T1 sequence (Q99418 50-255): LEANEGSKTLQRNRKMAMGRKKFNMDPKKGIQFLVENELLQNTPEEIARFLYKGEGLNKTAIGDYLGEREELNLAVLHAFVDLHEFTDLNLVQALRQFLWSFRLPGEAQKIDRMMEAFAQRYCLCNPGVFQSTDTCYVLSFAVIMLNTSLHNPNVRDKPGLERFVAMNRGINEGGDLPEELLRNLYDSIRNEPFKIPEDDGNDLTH
Protocol: The inhibition of the exchange activity of the sec7-domain of cytohesin-2 (ARNO) of the phenyl diamides according to formulas (5) to (18) was determined by a guanine nucleotide exchange assay.
The sec7-domain of cytohesin-2 (ARNO) and [Δ17]ARF1, a mutant of the ADP-ribosylation factor (ARF) protein, were subcloned into pET15 vectors (Novagen) as described in Hafner, M. et al. Nature 444, 941-944 (2006). N-terminal truncated [Δ17]ARF1 (amino acids 18-181), lacking the first 17 amino acids and ARNO-Sec7 (amino acids 50-255 of ARNO) were expressed in Escherichia coli and purified by Ni-NTA chromatography (Ni-NTA agarose, Qiagen).
The exchange from […] (GDP) to […] (GTP) induces a conformation change of the ribosylation factor, as a result of which the fluorescence of a tryptophan radical of the protein is increased. GDP/GTP exchange was measured on [Δ17]ARF1 by tryptophan fluorescence because a large increase in intrinsic fluorescence of ARF occurs upon exchange of GDP for GTP. All measurements were performed in PBS (137 mM NaCl, 2.7 mM KCl, 10.2 mM Na2HPO4, 1.8 mM KH2PO4) pH 7.4, 3 mM MgCl2 at 37° C.
[Δ17]ARF1 (1 μM) in PBS without MgCl2 was preincubated with 80 μM GDP in the presence of 2 mM ethylenediaminetetraacetic acid (EDTA) for 15 minutes. The bound GDP was stabilized by addition of MgCl2 at a final concentration of 3 mM and incubation for 5 minutes. For each exchange reaction 250 nM [Δ17]ARF1 was mixed with 10 nM ARNO-Sec7 (total volume 200 μl) in the absence or presence of the phenyl diamides according to formulas (5) to (18). The reaction was started by injection of 50 μM GTP.
The tryptophan fluorescence was measured at excitation and emission wavelength of 280 nm and 340 nm respectively. All fluorescent measurements were performed with a Varioskan microplate reader (Thermo Scientific), in 96-well plates. For analysis all data were fitted by linear regression.
The relative exchange rate was determined by comparing the initial linear rise of the fluorescence signal (exchange rate) in the presence of 2.5 μM of the phenyl diamides according to formulas (5) to (18) with the exchange rate in the presence of the solvent Dimethyl sulfoxide (DMSO), 0.4% end concentration, only. A further control was performed with the control compound according to formula (XH1009) as indicated below: […]
Further, the IC50 value of the inhibition of the sec7-domain of the isolated cytohesin-2 was determined. The IC50 value was determined by plotting the initial linear rise of the fluorescence signal against the added concentrations of the amide. The IC50 value corresponds to the concentration of the phenyl diamides at which the activity of the protein is reduced to half. The lower the IC50 value, the more strongly the phenyl diamide inhibits the sec7-domain.

glioblastoma cells = experiment: glioblastoma cell proliferation, cell line not stated (summary statements); type: cell-based; conditions: read-out: IC50 for the proliferation inhibition

| Compound | inhibition at 0.25 µM (Gli36 wt) | inhibition at 0.25 µM (U87 wt) | IC50 (U87 wt) | IC50 (U87 EGFRvIII) | IC50 [1] | selectivity of the inhibition of the EGFRvIII dependent cell proliferation (U87 EGFRvIII) | IC50 (glioblastoma cells) | inhibition of proliferation of EGFRvIII-cells relative to parental cell line (U87 EGFRvIII; U87 EGFRvIII vs parental U87 wt, FIG. 4B) |
| --- | --- | --- | --- | --- | --- | --- | --- | --- |
| CC(C)(C)c1ccc(C(=O)Nc2ccc(NC(=O)c3ccccc3[N+](=O)[O-])cc2)cc1 [formula (5), N-{4-[(4-tert-butylbenzoyl)amino]phenyl}-2-nitrobenzamide] | 30 to 50% | 30 to 50% | 0.168 µM | 0.046 µM | 1.18 µM |  |  |  |
| CC(C)(C)c1ccc(C(=O)Nc2ccc(NC(=O)c3ccc4c(c3)OCO4)cc2)cc1 [formula (17)] |  |  | 0.922 µM | 0.224 µM | 2.69 µM | selectively inhibited the proliferation of the U87 EGFRvIII-containing cell line; also recorded: selectivity for the mutation EGFR variant III (EGFRvIII) |  |  |
| Cc1ccc(C(=O)Nc2ccc(NC(=O)c3ccc(C(C)(C)C)cc3)cc2)cc1 [formula (14)] | > 50% | > 50% |  |  | 1.76 µM |  |  |  |
| CC(C)(C)c1ccc(C(=O)Nc2ccc(NC(=O)/C=C/c3ccco3)cc2)cc1 [formula (16), 4-tert-butyl-N-[4-[[(E)-3-furan-2-ylprop-2-enoyl]amino]phenyl]-benzamide] |  |  | 0.958 µM | 0.435 µM | 3.75 µM | no selectivety |  |  |
| Cc1ccccc1C(=O)Nc1ccc(NC(=O)c2ccc(C(C)(C)C)cc2)cc1 [formula (8)] | > 50% | > 50% | 0.118 µM | 0.148 µM | 1.19 µM |  |  |  |
| CC(C)(C)c1ccc(C(=O)Nc2ccc(NC(=O)c3ccc4c(c3)OCCO4)cc2)cc1 [formula (18)] |  |  | 0.297 µM | 0.105 µM | 1.34 µM |  | < 2 µM |  |
| CC(C)(C)c1ccc(C(=O)Nc2ccc(NC(=O)c3ccncc3)cc2)cc1 [formula (13)] |  |  | 2.09 µM | 0.186 µM | 7.27 µM | selectively inhibits the EGFRvIII expressing U87 cell line; also recorded: selectively inhibited the proliferation of the U87 EGFRvIII-containing cell line; also recorded: selectivity for the mutation EGFR variant III (EGFRvIII) |  | more than 10 fold |
| CC(C)(C)c1ccc(C(=O)Nc2ccc(NC(=O)c3ccc([N+](=O)[O-])cc3)cc2)cc1 [formula (10)] | > 50% | > 50% | 0.028 µM | 0.083 µM | 0.44 µM | selectivety for the inhibition of the parental U87 wt cell line |  |  |
| Cc1ccc(C(=O)Nc2ccc(NC(=O)c3ccc(C(C)(C)C)cc3)cc2)c(C)c1 [formula (12)] |  |  | 0.367 µM | 0.084 µM | 1.86 µM |  |  |  |
| CC(C)(C)c1ccc(C(=O)Nc2ccc(NC(=O)c3ccc(Br)o3)cc2)cc1 [formula (7)] |  |  | 1.37 µM | 0.198 µM | 4.57 µM | selectively inhibited the proliferation of the U87 EGFRvIII-containing cell line; also recorded: selectivity for the mutation EGFR variant III (EGFRvIII) |  |  |
| CC(C)(C)c1ccc(C(=O)Nc2ccc(NC(=O)c3ccc(F)cc3)cc2)cc1 [formula (9)] | 30 to 50% | 30 to 50% | 0.089 µM | 0.372 µM | 2.1 µM |  |  |  |
| CC(C)(C)c1ccc(C(=O)Nc2ccc(NC(=O)c3ccccc3Cl)cc2)cc1 [formula (11)] | > 50% | > 50% | 0.106 µM | 0.126 µM | 2.58 µM |  |  |  |
| CC(C)(C)c1ccc(C(=O)Nc2ccc(NC(=O)c3ccccc3F)cc2)cc1 [formula (15)] |  |  |  |  | 1.77 µM |  |  |  |
| CC(C)(C)c1ccc(C(=O)Nc2ccc(NC(=O)c3cccc(Cl)c3)cc2)cc1 [formula (6), N-{4-[(4-tert-butylbenzoyl)amino]phenyl}-3-chlorobenzamide] | 30 to 50% | 30 to 50% | 0.243 µM | 0.067 µM | 0.79 µM |  |  |  |
